The record followed here is patent US6610883B1, “Compounds having selective activity for retinoid X receptors, and means for modulation of processes mediated by retinoid X receptors” (Ligand Pharmaceuticals, Inc., priority 1992, dated 2003).

The structures appear in SMILES notation.

Common to all, as to assay type: cell-based
Design in all cases: expressed in transfected cells; host or cells: CV-1 (monkey kidney)
Common to all, as to settings: for Emax at 10 µM: CV-1, maximal response relative to all-trans-retinoic acid at 10^−5 M, read-out: Efficacy; for EC50: CV-1 cells, luciferase reporter, 36 h, read-out: Potency
(A reporter such as luciferase makes a cellular process visible.)

For one experiment, the target named is T1, RARα (Homo sapiens, UniProt P10276).
T1 sequence (P10276 1-462): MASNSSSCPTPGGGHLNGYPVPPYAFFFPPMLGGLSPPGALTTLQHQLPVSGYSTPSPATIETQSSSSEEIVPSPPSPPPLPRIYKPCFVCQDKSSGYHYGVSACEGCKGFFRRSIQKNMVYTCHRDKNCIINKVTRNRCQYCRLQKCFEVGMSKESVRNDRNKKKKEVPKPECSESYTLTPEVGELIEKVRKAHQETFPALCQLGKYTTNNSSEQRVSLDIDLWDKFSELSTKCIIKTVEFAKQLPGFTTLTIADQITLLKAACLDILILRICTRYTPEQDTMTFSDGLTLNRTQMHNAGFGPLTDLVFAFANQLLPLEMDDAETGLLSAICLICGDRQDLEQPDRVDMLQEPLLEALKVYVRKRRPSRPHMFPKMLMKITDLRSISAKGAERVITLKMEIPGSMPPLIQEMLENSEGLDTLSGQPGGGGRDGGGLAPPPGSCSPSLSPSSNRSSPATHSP
Briefly: Co-transfection (cis-trans) assay in CV-1 cells, RARα. The text has this:
(§1) The co-transfection assay provides a mechanism to evaluate the ability of a compound to modulate the transcription response initiated by an intracellular receptor. […] Berger, et al., J. Steroid Biochem Molec.
(§2) Briefly, the co-transfection assay involves the introduction of two plasmids by transient transfection into a retinoid receptor-negative mammalian cell background. The first plasmid contains a retinoid receptor cDNA and directs constitutive expression of the encoded receptor. The second plasmid contains a cDNA that encodes for a readily quantifiable protein, e.g., firefly luciferase or chloramphenicol acetyl transferase (CAT), under control of a promoter containing a retinoid acid response element, which confers retinoid dependence on the transcription of the reporter. In this co-transfection assay, all retinoid receptors respond to all-trans-retinoic acid in a similar fashion. This assay can be used to accurately measure efficacy and potency of retinoic acid and synthetic retinoids as ligands that interact with the individual retinoid receptor subtypes.
(§3) Accordingly, synthetic retinoid compounds of the current invention were evaluated for their interaction with retinoid receptor subtypes using the co-transfection assay in which CV-1 cells were co-transfected with one of the retinoid receptor subtypes, a reporter construct, and an internal control to allow normalization of the response for transfection efficiency. The following example is illustrative.
(§4) Retinoids: All-tans-retinoic acid (RA) and 13-cis-retinoic acid (13-cis-RA) were obtained from Sigma. […] Retinoids were dissolved in dimethylsulfoxide for use in the transcriptional activation assays.
(§5) Co-transfection Assay In CV-1 Cells: A monkey kidney cell line, CV-1, was used in the cis-trans assay. Cells were transfected with two plasmids. […] The cis-vector contains an easily assayable gene product, in this case the firefly luciferase, coupled to a retinoid-responsive promoter, i.e., an RARE or RXRE. Addition of retinoic acid or an appropriate synthetic retinoid results in the formation of a retinoid-RAR or -RXR complex that activates the expression of luciferase gene, causing light to be emitted from cell extracts. The level of luciferase activity is directly proportional to the effectiveness of the retinoid-receptor complex in activating gene expression. This sensitive and reproducible co-transfection approach permits the identification of retinoids that interact with the different receptor isoforms.
(§6) Cells were cultured in DMEM supplemented with 10% charcoal resin-stripped fetal bovine serum, and experiments were conducted in 96-well plates. […] Cells were transfected for 6 h and then washed to remove the precipitate. The cells were then incubated for 36 h with or without retinoid. After the transfection, all subsequent steps were performed on a Beckman Biomek Automated Workstation. […] All determinations were performed in triplicate in two independent experiments and were normalized for transfection efficiency by using β-galactosidase as the internal control. […] Efficacy values less than 5% are not statistically different than the 0% background.

Another experiment deals with T2, RARβ (Homo sapiens, UniProt P10826).
T2 sequence (P10826 1-455): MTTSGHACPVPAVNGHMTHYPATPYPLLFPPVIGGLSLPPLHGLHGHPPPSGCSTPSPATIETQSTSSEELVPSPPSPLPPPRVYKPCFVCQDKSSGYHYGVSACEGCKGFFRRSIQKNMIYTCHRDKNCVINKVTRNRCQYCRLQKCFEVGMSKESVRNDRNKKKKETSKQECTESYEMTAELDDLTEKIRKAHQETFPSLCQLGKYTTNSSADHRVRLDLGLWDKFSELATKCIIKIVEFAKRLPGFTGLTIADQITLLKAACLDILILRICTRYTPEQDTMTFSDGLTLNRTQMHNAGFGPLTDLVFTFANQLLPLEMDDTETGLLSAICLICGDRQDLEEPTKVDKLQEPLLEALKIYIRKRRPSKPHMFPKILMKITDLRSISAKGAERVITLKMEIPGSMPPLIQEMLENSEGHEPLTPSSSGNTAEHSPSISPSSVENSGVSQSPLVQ
Put plainly: Co-transfection (cis-trans) assay in CV-1 cells, RARβ.
Description: as §1, §2, §3, §4, §5, §6

Another experiment deals with T3, RARγ (Homo sapiens, UniProt P13631).
T3 sequence (P13631 1-454): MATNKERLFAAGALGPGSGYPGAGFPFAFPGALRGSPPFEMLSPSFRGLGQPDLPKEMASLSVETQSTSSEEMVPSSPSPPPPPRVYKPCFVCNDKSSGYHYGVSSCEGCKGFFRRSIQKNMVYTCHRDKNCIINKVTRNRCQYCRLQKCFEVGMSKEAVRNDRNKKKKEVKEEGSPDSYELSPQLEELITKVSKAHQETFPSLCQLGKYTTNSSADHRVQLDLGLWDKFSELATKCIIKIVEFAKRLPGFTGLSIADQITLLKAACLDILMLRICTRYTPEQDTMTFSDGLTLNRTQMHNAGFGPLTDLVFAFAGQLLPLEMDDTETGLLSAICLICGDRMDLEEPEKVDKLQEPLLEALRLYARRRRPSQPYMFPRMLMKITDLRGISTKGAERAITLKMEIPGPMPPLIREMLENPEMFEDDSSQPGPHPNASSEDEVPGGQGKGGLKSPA
Put plainly: Co-transfection (cis-trans) assay in CV-1 cells, RARγ.
Description: as §1, §2, §3, §4, §5, §6

`C=C(c1ccc(C(=O)O)cc1)c1cc2c(cc1Br)C(C)(C)CCC2(C)C` [3-Bromo-TTNEB, 4-[1-(3-bromo-5,5,8,8-tetramethyl-5,6,7,8-tetrahydro-2-naphthyl)ethenyl]benzoic acid]: the Emax at 10 µM on RARα is 3%; on RARβ, 18%; at RARγ, 15%.

Regarding `Cc1cc2c(cc1C(=O)c1ccc(C(=O)Nc3ccc(O)cc3)cc1)C(C)(C)CCC2(C)C` [3-Methyl-TTNCHBP, 4-[(3,5,5,8,8-pentamethyl-5,6,7,8-tetrahydro-2-naphthyl)carbonyl]-N-(4-hydroxyphenyl)benzamide], the Emax at 10 µM on RARα is below 2%; on RARβ, 7%; on RARγ it was 17%. In addition, the EC50 at RARα, at RARβ and at RARγ was above 10000 nM each time.

Consider `C=C(c1ccc(C(=O)Nc2ccc(O)cc2)cc1)c1cc2c(cc1C)C(C)(C)CCC2(C)C` [3-Methyl-TTNEHBP (63), 4-[1-(3,5,5,8,8-pentamethyl-5,6,7,8-tetrahydro-2-naphthyl)ethenyl]-N-(4-hydroxyphenyl)benzamide], for which the Emax at 10 µM on RARα was below 2%; on RARβ, 25%; on RARγ it was 10%. In addition, the EC50 on RARα is above 10000 nM; on RARβ, 1900 nM; at RARγ, above 10000 nM.

In the case of `CCCC(=C/C=C/C(C)=C/C(=O)O)/C=C/C1=C(C)CCCC1(C)C` [Compound 74, 3-methyl-7-propyl-9-(2,6,6-trimethyl-1-cyclohexen-1-yl)-2E,4E,6Z,8E-nonatetranoic acid], the Emax at 10 µM at RARα was below 2%; on RARβ, 50%; on RARγ, 61%. The EC50 is above 10000 nM on RARα, 38 nM at RARβ and 37 nM on RARγ.

For `CC1=C(/C=C/C(=C\C=C\C(C)=C\C(=O)O)C(C)C)C(C)(C)CCC1` [Compound 75, 3-methyl-7-isopropyl-9-(2,6,6-trimethyl-1-cyclohexen-1-yl)-2E,4E,6Z,8E-nonatetranoic acid], the values for the Emax at 10 µM at RARα, on RARβ and on RARγ were below 2%, 58% and 119%, respectively. Moreover, the figures for the EC50 on RARα, on RARβ and on RARγ were above 10000 nM, 180 nM and 150 nM, respectively.

On to `CC1=C(/C=C/C(=C\C=C\C(C)=C\C(=O)O)C(C)(C)C)C(C)(C)CCC1` [Compound 77, 3-methyl-7-t-butyl-9-(2,6,6-trimethyl-1-cyclohexen-1-yl)-2E,4E,6Z,8E-nonatetranoic acid], for which the Emax at 10 µM at RARα was below 2%; on RARβ, 63%; on RARγ, 44%. Also, the EC50 on RARα is above 10000 nM; at RARβ, 140 nM; on RARγ it was 170 nM.

In the case of `CC1=C(C=CC2CCCCC2/C=C/C(C)=C/C(=O)O)C(C)(C)CCC1` (stereo not drawn) [Compound 100, 3-methyl-5-(2-[2-(2,6,6-trimethylcyclohexen-1-yl)ethenyl]cyclohexyl)-2E,4E-pentadienoic acid], the Emax at 10 µM amounted to 9% at RARα, 5% at RARβ and 4% on RARγ. The EC50 on RARα, on RARβ and at RARγ was above 10000 nM in each case.

Take `CC(/C=C/C1(c2cc3c(cc2C)C(C)(C)CCC3(C)C)CC1)=C\C(=O)O` [Compound 104, (2E,4E)-3-methyl-5-[1-(3,5,5,8,8-pentamethyl-5,6,7,8-tetrahydro-2-naphthyl)cyclopropyl]penta-2,4-dienoic acid]: the Emax at 10 µM is 7% at RARα, 5% at RARβ and 28% at RARγ. For the same compound, the EC50 at RARα was above 10000 nM; on RARβ, above 10000 nM; at RARγ it was 144 nM.

As to `CC1=C(/C=C/C2(C/C=C/C(C)=C/C(=O)O)CC2)C(C)(C)CCC1` [Compound 110], the Emax at 10 µM on RARα amounted to 9%; on RARβ, 29%; at RARγ, 37%. The values for the EC50 on RARα, on RARβ and on RARγ were above 10000 nM, 446 nM and 1770 nM, respectively.

For `CC(/C=C/C=C(\c1ccc2c(c1)C(C)(C)CCC2(C)C)C(C)C)=C\C(=O)O` [Compound 123, (2E,4E,6Z)-7-(5,5,8,8-tetramethyl-5,6,7,8-tetrahydro-2-naphthyl)-3,8-dimethyl-nona-2,4,6-trienoic acid], the values for the Emax at 10 µM on RARα, on RARβ and on RARγ were 11%, 55% and 49%, respectively. In addition, the EC50 on RARα is above 10000 nM; on RARβ it was 75 nM; at RARγ, 283 nM.

Turning to `C/C(=C/C=C/C(C)=C/C(=O)O)c1cc2c(cc1C)C(C)(C)CCC2(C)C` [Compound 128, (2E,4E,6Z)-7-(3,5,5,8,8-pentamethyl-5,6,7,8-tetrahydro-2-naphthyl)-3-methyl-octa-2,4,6-trienoic acid], the Emax at 10 µM worked out at 12% on RARα, 40% at RARβ and 37% on RARγ. For the same compound, the results for the EC50 at RARα, at RARβ and on RARγ were above 10000 nM, 180 nM and 309 nM, respectively.
